{"source": "paper PMC11036874", "about": "“In vitro characterization of [^125I]HY-3-24, a selective ligand for the dopamine D3 receptor” (Frontiers in Neuroscience, 2024)", "key": {"[1]": {"target": "dopamine D2 (Homo sapiens, UniProt P14416)", "assay": "PDSP binding screen", "details": "HCl salt, [3H]N-methylspiperone", "from_the_text": "(§1) The binding of HY-3-24 to various GPCRs was investigated through comprehensive screening by Psychoactive Drug Screening Program (PDSP) (Supplementary Table S1) ([Besnard et al., 2012]). These GPCRs included major neurotransmitter receptors family (e.g., dopamine, serotonin, histamine, opioid, muscarinic, adrenergic, sigma receptors, ɤ-amino-butyric acid type A, and benzodiazepine receptors) and transporters (e.g., dopamine, norepinephrine, and serotonin transporter)."}, "[2]": {"target": "benzodiazepine rat brain site", "assay": "PDSP binding screen", "details": "HCl salt", "from_the_text": "as §1"}, "[3]": {"target": "T1, adrenergic alpha2B (Homo sapiens, UniProt P18089)", "T1 construct": "Psychoactive Drug Screening Program (PDSP)", "T1 sequence (P18089 whole entry)": "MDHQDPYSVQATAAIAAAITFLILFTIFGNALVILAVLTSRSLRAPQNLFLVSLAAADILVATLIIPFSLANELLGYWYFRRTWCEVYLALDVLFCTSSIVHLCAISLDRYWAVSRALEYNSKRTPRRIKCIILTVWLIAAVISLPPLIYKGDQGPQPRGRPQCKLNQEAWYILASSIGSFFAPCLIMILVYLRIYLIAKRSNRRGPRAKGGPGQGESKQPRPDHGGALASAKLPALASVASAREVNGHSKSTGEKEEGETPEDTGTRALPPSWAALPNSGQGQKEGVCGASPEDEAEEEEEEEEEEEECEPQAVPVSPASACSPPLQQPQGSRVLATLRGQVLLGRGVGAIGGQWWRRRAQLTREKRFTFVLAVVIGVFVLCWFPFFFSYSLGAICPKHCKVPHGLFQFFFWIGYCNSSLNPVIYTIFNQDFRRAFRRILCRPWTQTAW", "assay": "PDSP binding screen", "details": "HCl salt", "from_the_text": "as §1"}, "[4]": {"target": "T2, Muscarinic M2 (Homo sapiens, UniProt P08172)", "T2 construct": "Psychoactive Drug Screening Program (PDSP)", "assay": "PDSP binding screen", "details": "HCl salt", "from_the_text": "as §1"}, "[5]": {"target": "T3, sigma1 (Homo sapiens, UniProt Q99720)", "T3 construct": "Psychoactive Drug Screening Program (PDSP)", "T3 sequence (Q99720 whole entry)": "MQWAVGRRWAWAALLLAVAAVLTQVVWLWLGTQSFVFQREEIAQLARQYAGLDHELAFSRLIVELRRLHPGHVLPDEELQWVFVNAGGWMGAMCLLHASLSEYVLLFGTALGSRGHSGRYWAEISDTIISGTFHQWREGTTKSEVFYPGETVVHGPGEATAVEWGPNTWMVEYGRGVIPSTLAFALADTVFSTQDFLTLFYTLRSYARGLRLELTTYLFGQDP", "assay": "PDSP binding screen", "details": "HCl salt", "from_the_text": "as §1"}, "[6]": {"target": "T4, adrenergic alpha2C (Homo sapiens, UniProt P18825)", "T4 construct": "Psychoactive Drug Screening Program (PDSP)", "assay": "PDSP binding screen", "details": "HCl salt", "from_the_text": "as §1"}, "[7]": {"target": "dopamine D1 (Homo sapiens, UniProt P21728)", "assay": "PDSP binding screen", "details": "HCl salt", "from_the_text": "as §1"}, "[8]": {"target": "T5, adrenergic alpha2A (Homo sapiens, UniProt P08913)", "T5 construct": "Psychoactive Drug Screening Program (PDSP)", "assay": "PDSP binding screen", "details": "HCl salt", "from_the_text": "as §1"}, "[9]": {"target": "T6, serotonin transporter (Homo sapiens, UniProt P31645)", "T6 construct": "Psychoactive Drug Screening Program (PDSP)", "T6 sequence (P31645 whole entry)": "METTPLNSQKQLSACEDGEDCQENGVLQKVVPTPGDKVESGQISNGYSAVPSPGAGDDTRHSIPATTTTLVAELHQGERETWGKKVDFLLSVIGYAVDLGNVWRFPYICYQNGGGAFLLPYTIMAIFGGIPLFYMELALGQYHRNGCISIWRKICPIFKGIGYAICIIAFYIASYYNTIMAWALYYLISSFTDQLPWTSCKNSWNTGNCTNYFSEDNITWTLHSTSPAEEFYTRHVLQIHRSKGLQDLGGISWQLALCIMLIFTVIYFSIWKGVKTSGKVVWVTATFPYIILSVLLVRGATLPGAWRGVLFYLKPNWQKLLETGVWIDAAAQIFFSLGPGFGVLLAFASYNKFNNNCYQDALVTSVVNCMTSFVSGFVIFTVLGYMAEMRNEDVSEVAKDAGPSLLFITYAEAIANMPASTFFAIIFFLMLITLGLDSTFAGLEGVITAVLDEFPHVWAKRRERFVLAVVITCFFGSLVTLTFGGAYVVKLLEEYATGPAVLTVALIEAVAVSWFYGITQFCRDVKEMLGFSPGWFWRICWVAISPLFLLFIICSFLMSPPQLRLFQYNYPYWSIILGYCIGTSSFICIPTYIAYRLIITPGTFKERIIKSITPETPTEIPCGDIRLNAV", "assay": "PDSP binding screen", "details": "HCl salt", "from_the_text": "as §1"}, "[10]": {"target": "T7, opioid KOR (Homo sapiens, UniProt P41145)", "T7 construct": "Psychoactive Drug Screening Program (PDSP)", "assay": "PDSP binding screen", "details": "HCl salt", "from_the_text": "as §1"}, "[11]": {"target": "T8, Muscarinic M4 (Homo sapiens, UniProt P08173)", "T8 construct": "Psychoactive Drug Screening Program (PDSP)", "assay": "PDSP binding screen", "details": "HCl salt", "from_the_text": "as §1"}, "[12]": {"target": "serotonin 5-HT1D (Homo sapiens, UniProt P28221)", "assay": "PDSP binding screen", "details": "HCl salt", "from_the_text": "as §1"}, "[13]": {"target": "serotonin 5-HT2C (Homo sapiens, UniProt P28335)", "sequence (P28335 33-458)": "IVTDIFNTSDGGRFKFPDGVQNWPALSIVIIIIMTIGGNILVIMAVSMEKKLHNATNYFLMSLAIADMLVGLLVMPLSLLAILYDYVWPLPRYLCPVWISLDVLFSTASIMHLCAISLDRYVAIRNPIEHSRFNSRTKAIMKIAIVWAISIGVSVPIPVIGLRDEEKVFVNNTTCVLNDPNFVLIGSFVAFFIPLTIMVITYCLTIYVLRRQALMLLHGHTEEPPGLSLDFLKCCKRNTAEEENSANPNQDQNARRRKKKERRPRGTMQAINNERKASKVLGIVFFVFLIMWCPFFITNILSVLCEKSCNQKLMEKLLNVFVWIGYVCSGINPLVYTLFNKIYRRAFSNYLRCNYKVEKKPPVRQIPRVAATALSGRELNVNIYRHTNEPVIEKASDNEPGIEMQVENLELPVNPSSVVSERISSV", "assay": "PDSP binding screen", "details": "HCl salt", "from_the_text": "as §1"}, "[14]": {"target": "benzodiazepine receptor", "assay": "PDSP binding screen", "details": "HCl salt", "from_the_text": "as §1"}, "[15]": {"target": "dopamine D4 (Homo sapiens, UniProt P21917)", "assay": "PDSP binding screen", "details": "HCl salt", "from_the_text": "as §1"}, "[16]": {"target": "T9, histamine H1 (Homo sapiens, UniProt P35367)", "T9 construct": "Psychoactive Drug Screening Program (PDSP)", "T9 sequence (P35367 whole entry)": "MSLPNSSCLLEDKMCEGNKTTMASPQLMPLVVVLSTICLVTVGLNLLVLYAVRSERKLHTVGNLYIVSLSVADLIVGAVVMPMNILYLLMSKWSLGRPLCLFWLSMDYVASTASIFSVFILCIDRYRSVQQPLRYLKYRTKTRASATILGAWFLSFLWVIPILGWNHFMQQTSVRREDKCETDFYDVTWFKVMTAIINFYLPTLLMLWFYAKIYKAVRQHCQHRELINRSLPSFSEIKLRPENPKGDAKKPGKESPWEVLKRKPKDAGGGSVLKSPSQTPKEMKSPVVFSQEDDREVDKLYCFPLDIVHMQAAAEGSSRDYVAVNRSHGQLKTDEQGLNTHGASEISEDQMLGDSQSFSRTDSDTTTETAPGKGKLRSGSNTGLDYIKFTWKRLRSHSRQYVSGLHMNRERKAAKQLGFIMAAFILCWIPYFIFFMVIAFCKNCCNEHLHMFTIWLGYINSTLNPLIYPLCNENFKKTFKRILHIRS", "assay": "PDSP binding screen", "details": "HCl salt", "from_the_text": "as §1"}, "[17]": {"target": "T10, serotonin 5-HT6 (Homo sapiens, UniProt P50406)", "T10 construct": "Psychoactive Drug Screening Program (PDSP)", "T10 sequence (P50406 whole entry)": "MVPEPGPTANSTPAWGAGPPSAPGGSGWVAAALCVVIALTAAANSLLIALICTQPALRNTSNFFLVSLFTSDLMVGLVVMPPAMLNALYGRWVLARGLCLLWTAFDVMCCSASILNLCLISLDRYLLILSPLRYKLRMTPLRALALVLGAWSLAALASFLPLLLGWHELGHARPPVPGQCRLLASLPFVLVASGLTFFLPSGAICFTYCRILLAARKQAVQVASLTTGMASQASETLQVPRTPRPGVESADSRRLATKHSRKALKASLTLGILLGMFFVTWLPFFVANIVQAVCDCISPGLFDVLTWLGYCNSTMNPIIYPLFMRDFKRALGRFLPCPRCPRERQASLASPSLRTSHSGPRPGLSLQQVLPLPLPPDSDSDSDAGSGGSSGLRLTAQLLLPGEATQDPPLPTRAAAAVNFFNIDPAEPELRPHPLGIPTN", "assay": "PDSP binding screen", "details": "HCl salt", "from_the_text": "as §1"}, "[18]": {"target": "T11, adrenergic beta2 (Homo sapiens, UniProt P07550)", "T11 construct": "Psychoactive Drug Screening Program (PDSP)", "T11 sequence (P07550 whole entry)": "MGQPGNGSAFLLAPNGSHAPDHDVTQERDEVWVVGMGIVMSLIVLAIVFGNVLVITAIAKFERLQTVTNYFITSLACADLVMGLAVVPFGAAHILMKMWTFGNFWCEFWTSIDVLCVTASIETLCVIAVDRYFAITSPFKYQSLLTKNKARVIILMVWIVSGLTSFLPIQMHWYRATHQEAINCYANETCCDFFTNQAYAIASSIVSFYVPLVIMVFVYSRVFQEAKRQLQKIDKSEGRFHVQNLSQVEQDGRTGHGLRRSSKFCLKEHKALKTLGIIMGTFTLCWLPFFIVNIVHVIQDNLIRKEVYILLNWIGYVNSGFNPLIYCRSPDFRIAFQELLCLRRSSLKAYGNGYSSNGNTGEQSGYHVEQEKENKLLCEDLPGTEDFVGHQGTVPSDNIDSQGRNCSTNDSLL", "assay": "PDSP binding screen", "details": "HCl salt", "from_the_text": "as §1"}, "[19]": {"target": "serotonin 5-HT2A (Homo sapiens, UniProt P28223)", "sequence (P28223 whole entry)": "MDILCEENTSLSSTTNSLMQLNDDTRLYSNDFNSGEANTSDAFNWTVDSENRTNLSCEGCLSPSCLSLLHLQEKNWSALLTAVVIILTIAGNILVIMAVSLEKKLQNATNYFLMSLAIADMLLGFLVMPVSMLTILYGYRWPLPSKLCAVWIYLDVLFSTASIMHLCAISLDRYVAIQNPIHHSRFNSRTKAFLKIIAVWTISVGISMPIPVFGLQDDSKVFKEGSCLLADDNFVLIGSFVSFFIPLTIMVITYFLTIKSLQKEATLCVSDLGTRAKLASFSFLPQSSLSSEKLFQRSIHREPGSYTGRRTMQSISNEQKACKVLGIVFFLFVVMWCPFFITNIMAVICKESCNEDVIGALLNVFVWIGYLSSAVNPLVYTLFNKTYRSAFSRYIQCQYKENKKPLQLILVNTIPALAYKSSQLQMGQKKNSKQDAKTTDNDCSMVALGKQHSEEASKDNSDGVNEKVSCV", "assay": "PDSP binding screen", "details": "HCl salt", "from_the_text": "as §1"}, "[20]": {"target": "T12, dopamine active transporter (Homo sapiens, UniProt Q01959)", "T12 construct": "Psychoactive Drug Screening Program (PDSP)", "assay": "PDSP binding screen", "details": "HCl salt", "from_the_text": "as §1"}, "[21]": {"target": "ɤ-aminobutyric acid type A", "assay": "PDSP binding screen", "details": "HCl salt", "from_the_text": "as §1"}, "[22]": {"target": "T13, Muscarinic M5 (Homo sapiens, UniProt P08912)", "T13 construct": "Psychoactive Drug Screening Program (PDSP)", "assay": "PDSP binding screen", "details": "HCl salt", "from_the_text": "as §1"}, "[23]": {"target": "T14, norepinephrine transporter (Homo sapiens, UniProt P23975)", "T14 construct": "Psychoactive Drug Screening Program (PDSP)", "T14 sequence (P23975 whole entry, species assumed)": "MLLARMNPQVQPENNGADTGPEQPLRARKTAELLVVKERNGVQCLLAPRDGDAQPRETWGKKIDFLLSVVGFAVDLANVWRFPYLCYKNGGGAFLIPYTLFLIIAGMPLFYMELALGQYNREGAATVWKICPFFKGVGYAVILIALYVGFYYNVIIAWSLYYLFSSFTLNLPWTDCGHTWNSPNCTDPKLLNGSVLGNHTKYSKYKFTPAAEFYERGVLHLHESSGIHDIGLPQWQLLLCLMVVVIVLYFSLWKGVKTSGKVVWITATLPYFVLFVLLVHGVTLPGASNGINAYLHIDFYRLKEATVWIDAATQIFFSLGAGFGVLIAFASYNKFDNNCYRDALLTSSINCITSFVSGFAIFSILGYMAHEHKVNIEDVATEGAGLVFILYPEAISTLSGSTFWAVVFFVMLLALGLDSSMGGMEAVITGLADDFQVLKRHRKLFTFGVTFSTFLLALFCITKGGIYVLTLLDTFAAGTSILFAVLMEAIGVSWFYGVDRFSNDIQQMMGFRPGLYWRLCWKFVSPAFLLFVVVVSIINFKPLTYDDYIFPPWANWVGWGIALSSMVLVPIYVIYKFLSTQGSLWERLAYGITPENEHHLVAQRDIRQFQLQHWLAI", "assay": "PDSP binding screen", "details": "HCl salt", "from_the_text": "as §1"}, "[24]": {"target": "T15, Muscarinic M3 (Homo sapiens, UniProt P20309)", "T15 construct": "Psychoactive Drug Screening Program (PDSP)", "T15 sequence (P20309 whole entry)": "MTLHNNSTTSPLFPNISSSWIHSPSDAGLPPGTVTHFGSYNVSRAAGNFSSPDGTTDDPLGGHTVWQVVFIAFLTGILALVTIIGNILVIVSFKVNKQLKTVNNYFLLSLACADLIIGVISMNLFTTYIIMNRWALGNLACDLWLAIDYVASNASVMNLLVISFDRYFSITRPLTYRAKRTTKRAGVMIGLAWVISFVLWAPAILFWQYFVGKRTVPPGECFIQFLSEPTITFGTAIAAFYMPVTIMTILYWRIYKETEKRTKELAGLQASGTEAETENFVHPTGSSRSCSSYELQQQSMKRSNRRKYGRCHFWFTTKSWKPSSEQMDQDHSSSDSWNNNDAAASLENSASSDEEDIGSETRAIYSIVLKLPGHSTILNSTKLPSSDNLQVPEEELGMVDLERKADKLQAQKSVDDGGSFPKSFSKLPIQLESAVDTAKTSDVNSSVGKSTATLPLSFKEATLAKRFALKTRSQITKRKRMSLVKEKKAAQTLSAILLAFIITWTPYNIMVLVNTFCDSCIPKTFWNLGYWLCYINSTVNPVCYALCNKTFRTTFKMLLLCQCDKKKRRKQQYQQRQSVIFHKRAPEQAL", "assay": "PDSP binding screen", "details": "HCl salt", "from_the_text": "as §1"}, "[25]": {"target": "serotonin 5-HT3 (Homo sapiens, UniProt P46098)", "assay": "PDSP binding screen", "details": "HCl salt", "from_the_text": "as §1"}, "[26]": {"target": "T16, human D2R (Homo sapiens, UniProt P14416)", "T16 construct": "expressed in transfected cells; host or cells: HEK293", "assay": "D2R radioligand binding assay with [125I]IABN", "details": "human D2R transfected HEK293 cell membranes, mean ± SEM of three experiments", "description": "The dopamine receptor binding assay was performed according to previous studies ([Luedtke et al., 2000]; [Vangveravong et al., 2006]; [Reilly et al., 2017]), and human D2R or D3R or D4 transfected HEK293 cells were used for dopamine receptor binding assay. The cells were grown in Dulbecco’s Modified Eagle Medium including 10% FBS, 0.1% Penn Strep, […] of geneticin (G418) for human D2R or D3R transfected HEK293 cells, and […] of puromycin for human D4 HEK293 cells at 5% CO2, 37°C. The cells were collected by centrifuge (6,000 × g, 10 min), and the supernatant was discarded. Cold homogenization buffer (50 mM Na Hepes, 0.1 mM EDTA, 1 mM DTT, pH 7.4) was added into the pellet and homogenized by a polytron (Brinkmann Instruments, Westbury, NY, United States), and centrifuged at 40,000 × g for 10 min. This process was repeated two more times to get final pellet, and the membranes were then resuspended with HB buffer including 5 mM MgCl2 and stored at −80°C until use.\nHY-3-24 was prepared in 10^−5 to 10^−11 M concentration range with assay buffer (50 mM Tris–HCl, 150 mM NaCl, 10 mM EDTA, pH 7.5). […] The membrane was washed with cold buffer (three times), and collected filters were counted on a gamma counter (GMI, Minnesota, United States). The results were analyzed by nonlinear regression, and the data were reported mean ± SEM values by three independent experiments."}}}
{"molecule": "CCN(CCCNC(=O)c1ccc(-c2ccncc2)cc1)CCNC(=O)c1cc(I)cc(OC)c1OC", "note": "[HY-3-24, N-(2-(Ethyl(3-(4-(pyridin-4-yl)benzamido)propyl)amino)ethyl)-5-iodo-2,3-dimethoxybenzamide]", "values": [{"measurement": "Ki", "setting": "[1]", "result": 43, "unit": "nM"}, {"measurement": "Ki benzodiazepine rat brain site", "setting": "[2]", "result": "N.A. (not active, less than 50% inhibition in primary binding assays at 10 µM)"}, {"measurement": "Ki", "setting": "[3]", "result": 1070, "unit": "nM"}, {"measurement": "Ki", "setting": "[4]", "result": 832, "unit": "nM"}, {"measurement": "Ki", "setting": "[5]", "result": 1950, "unit": "nM"}, {"measurement": "Ki", "setting": "[6]", "result": 1900, "unit": "nM"}, {"measurement": "Ki D1", "setting": "[7]", "result": "N.A. (not active, less than 50% inhibition in primary binding assays at 10 µM)"}, {"measurement": "Ki", "setting": "[8]", "result": 2150, "unit": "nM"}, {"measurement": "Ki", "setting": "[9]", "result": 677, "unit": "nM"}, {"measurement": "Ki", "setting": "[10]", "result": 1550, "unit": "nM"}, {"measurement": "Ki", "setting": "[11]", "result": 544, "unit": "nM"}, {"measurement": "Ki", "setting": "[12]", "result": 1690, "unit": "nM"}, {"measurement": "Ki", "setting": "[13]", "result": 613, "unit": "nM"}, {"measurement": "Ki", "setting": "[14]", "result": 5640, "unit": "nM"}, {"measurement": "Ki", "setting": "[15]", "result": 1860, "unit": "nM"}, {"measurement": "Ki", "setting": "[16]", "result": 244, "unit": "nM"}, {"measurement": "Ki", "setting": "[17]", "result": 1040, "unit": "nM"}, {"measurement": "Ki", "setting": "[18]", "result": 5830, "unit": "nM"}, {"measurement": "Ki", "setting": "[19]", "result": 310, "unit": "nM"}, {"measurement": "Ki", "setting": "[20]", "result": 1130, "unit": "nM"}, {"measurement": "Ki", "setting": "[21]", "result": 1120, "unit": "nM"}, {"measurement": "Ki", "setting": "[22]", "result": 118, "unit": "nM"}, {"measurement": "Ki", "setting": "[23]", "result": 5950, "unit": "nM"}, {"measurement": "Ki", "setting": "[24]", "result": 1780, "unit": "nM"}, {"measurement": "Ki", "setting": "[25]", "result": 904, "unit": "nM"}, {"measurement": "Ki", "setting": "[26]", "result": "86.7 ± 11.9", "unit": "nM"}]}
